# Article PMC6886872, “Discovery of a small molecule inhibitor targeting dengue virus NS5 RNA-dependent RNA polymerase” (PLoS Neglected Tropical Diseases, 2019)
# Like-named read-outs stand apart in the source and are kept apart here.
# Tests used:
# DENV1 (Mochizuki strain) = assay: Cell-based antiviral assay, viral RNA in supernatant of infected Vero cells (RT-qPCR); design: species or system Dengue virus serotype 1 (DENV1); details: Dengue virus, 72 h, viral RNA 3 days after infection
# Experimental: (§1) The experiments were performed in triplicate.
# full-length DENV4 NS5 = molecular target: T1, full-length DENV4 NS5 (Dengue virus type 4, UniProt P09866); assay: biochemical; details: read-out: IC50 Polymerase assay
# T1 construct: full-length NS5 proteins, comprising the N-terminal MTase and the C-terminal RdRp; His-tag (N, cleaved yes); SUMO (N, cleaved yes); made in house; host or cells: E. coli KRX
# full-length DENV3 NS5 = molecular target: T2, full-length DENV3 NS5 (Dengue virus type 3, UniProt P27915); assay: biochemical
# T2 construct: full-length NS5 proteins, comprising the N-terminal MTase and the C-terminal RdRp; His-tag (N, cleaved yes); SUMO (N, cleaved yes); made in house; host or cells: E. coli KRX
# DENV1–4 infections = assay: Cell-based antiviral assay, summary over serotypes; details: range over DENV1–4; read-out: EC50 values, antiviral activities
# Experimental: as §1
# DENV2 P04/08 strain = assay: Cell-based antiviral assay, viral RNA in supernatant of infected Vero cells (RT-qPCR); details: 72 hours after infection
# DENV2 16681 strain = assay: as above; details: Dengue virus, 72 h; DENV2 16681, Vero cells, viral RNA 3 days after infection
# Experimental: as §1
# DENV4 (H241 strain) = assay: as above; details: 72 h, viral RNA 3 days after infection
# Experimental: as §1
# DENV3 (H87 strain) = assay: as above; details: 72 h, viral RNA 3 days after infection
# Experimental: as §1
# [1] = tested on: NS5 proteins from DENV1–4; type: biochemical; details: range over NS5 proteins from DENV1–4; read-out: IC50 values, RdRp activities
# Vero cells = assay: Cytotoxicity, WST-1 assay; type: cell-based; details: two days culture
# Experimental: The cytotoxic activities of the compounds were tested using a WST-1 assay (Roche Diagnostics), according to the manufacturer’s instructions. […] Ten μL of WST-1 solution was added to each well, and the cells were further incubated for 30 min. The absorbance was measured at 450 nm, with subtraction of the nonspecific background at 650 nm.
# [2] = tested on: recombinant DENV2 (WT, C780A, C780Q NS5); type: cell-based
smiles,measurement,setting,value
"CC(=O)Oc1ccc2oc(=O)sc2c1 [RK-0404678, (2-Oxo-1,3-benzoxathiol-5-yl) acetate]",EC50,DENV1 (Mochizuki strain),29.5 ± 4.2 µM
same,IC50,full-length DENV4 NS5,445 ± 23 µM
same,IC50,full-length DENV3 NS5,287 ± 11 µM
same,EC50,DENV1–4 infections,6 to 31.9 µM
same,antiviral effect on DENV2 P04/08 strain compared with 16681 strain,DENV2 P04/08 strain,comparable effect
same,EC50,DENV2 16681 strain,6 ± 0.3 µM
same,EC50,DENV4 (H241 strain),31.9 ± 2.8 µM
same,EC50,DENV3 (H87 strain),29.4 ± 1.8 µM
same,IC50,[1],46.2 to 445 µM
same,cytotoxicity in Vero cells,Vero cells,marginal cytotoxicity even at the highest concentration (50 μM)
same,EC50,[2]; DENV2 NS5 C780A mutant virus (Site 1),3.3 ± 1.1 µM
same,EC50,[2]; DENV2 NS5 C780Q mutant virus (Site 1),12.8 ± 2.2 µM
same,EC50,[2]; WT (recombinant) DENV2 virus,7.1 ± 0.67 µM
